Test results: a flash point compilation (Sun et al. 2020)

SMILES | flash point [°C]
C[Si]1(C)CCCCO1 [1,1 -Dimethyl-1-sila-2-oxacyclohexane] | 14.00
C[SiH](C)O[SiH](C)C [1,1,3,3-Tetramethyldisiloxane] | -22.00
C=CC=CO[Si](C)(C)C [1-(Trimethylsiloxy)-1,3-butadiene] | 25.00
C[Si](C)(C)O[Si](C)(C)O[Si](C)(C)O[Si](C)(C)Cl [1-Chlorononamethyltetrasiloxane] | 74.00
CCCCCC#C[Si](C)(C)C [1-Heptynyltrimethylsilane] | 42.00
C=C[Si]1(C)O[Si](C)(C=C)O[Si](C)(C=C)O[Si](C)(C=C)O1 (stereo unspecified) [2,4,6,8-Tetravinyl-2,4,6,8-tetramethylcyclotetrasiloxane] | 112.00
C=C(CCl)C[Si](C)(C)C [2-Chloromethyl-3-trimethylsilyl-1-propene] | 43.00
C[Si](Cl)(Cl)CCC#N [2-Cyanoethylmethyldichlorosilane] | 60.00
CCO[Si](CCC#N)(OCC)OCC [2-Cyanoethyltriethoxysilane] | 86.00
C[Si](C)(C)C1C=CCC1 (stereo unspecified) [3-(Trimethylsilyl)cyclopentene] | 26.00
CO[Si](CCCCl)(OC)OC [3-Chloropropyltrimethoxysilane] | 75.00
C=CCO[Si](C)(C)C [Allyloxytrimethylsilane] | 0.00
C[Si](C)(C)Cc1ccccc1 [Benzyltrimethylsilane] | 62.00
CCN(CC)[Si](C)(C)N(CC)CC [Bis(diethylamino)dimethylsilane] | 35.00
CN(C)[Si](C)(C)N(C)C [Bis(dimethylamino)dimethylsilane] | -7.00
C[Si](C)(Cl)CBr [Bromomethyldimethylchlorosilane] | 41.00
C[Si](C)(Cl)CCC(F)(F)F [Chlorodimethyl(3,3,3-trifluoropropyl) silane] | 20.00
Cl[Si](Cl)(Cl)C1CCCCC1 [Cyclohexyltrichlorosilane] | 85.00
C[Si](C)(C)C1C=CC=C1 [Cyclopentadienyltrimethylsilane] | 29.00
Cl[SiH](Cl)C1CCCC1 [Cyclopentyldichlorosilane] | 43.00

SMILES | flash point [°C]
C[Si]1(C)O[Si](C)(C)O[Si](C)(C)O[Si](C)(C)O[Si](C)(C)O1 [Decamethylcyclopentasiloxane] | 77.00
CC(C)(C)[Si](C)(Cl)C(C)(C)C [Di-t-butylmethylchlorosilane] | 69.00
C[Si](Cl)(Cl)C(Cl)Cl [Dichloromethylmethyldichlorosilane] | 28.00
CC[SiH2]CC [Diethylsilane] | -20.00
C[SiH](C)c1c(F)c(F)c(F)c(F)c1F [Dimethyl(pentafluorophenyl) silane] | 40.00
C[SiH](C)Cl [Dimethylchlorosilane] | -28.00
C[Si](C)(Cl)Cl [Dimethyldichlorosilane] | -16.00
CCO[Si](C)(C)OCC [Dimethyldiethoxysilane] | 11.00
CO[Si](C)(C)OC [Dimethyldimethoxysilane] | -8.00
Cl[Si](Cl)(c1ccccc1)c1ccccc1 [Diphenyldichlorosilane] | 142.00
CO[Si](OC)(c1ccccc1)c1ccccc1 [Diphenyldimethoxysilane] | 121.00
C=C[Si](C)(C)C=C [Divinyldimethylsilane] | 8.00
C[Si](C)(C)O[Si](C)(C)O[Si](C)(C)O[Si](C)(C)O[Si](C)(C)C [Dodecamethylpentasiloxane] | 79.00
CC[Si](C)(C)Cl [ETHYLDIMETHYLCHLOROSILANE] | -4.00
CCO[Si](C)(C)C [Ethoxytrimethylsilane] | -27.00
CC[Si](OC(C)=O)(OC(C)=O)OC(C)=O [Ethyltriacetoxysilane] | 104.00
CN([Si](C)(C)C)[Si](C)(C)C [Heptamethyldisilazane] | 27.00
CCCCCCCCCCCCCCCC[Si](Cl)(Cl)Cl [Hexadecyltrichlorosilane] | 154.00
C[Si]1(C)O[Si](C)(C)O[Si](C)(C)O1 [Hexamethylcyclotrisiloxane] | 32.00
C[Si](C)(C)[Si](C)(C)C [Hexamethyldisilane] | -1.00

SMILES | flash point [°C]
C[Si](C)(C)N[Si](C)(C)C [Hexamethyldisilazane] | 8.00
CCCCCC[Si](OC)(OC)OC [Hexyltrimethoxysilane] | 62.00
CC(C)C[Si](Cl)(Cl)Cl [Isobutyltrichlorosilane] | 37.00
CO[Si](C)(OC)c1ccccc1 [Methyl phenyldimethoxysilane] | 76.00
C[Si](Cl)(c1ccccc1)c1ccccc1 [Methyldiphenylchlorosilane] | 138.00
CCO[Si](C)(OCC)OCC [Methyltriethoxysilane] | 24.00
CO[Si](C)(OC)OC [Methyltrimethoxysilane] | 11.00
C[Si](C)(C)O[Si](C)(C)O[Si](C)(C)C [Octamethyltrisiloxane] | 30.00
C[SiH](C)O[Si](C)(C)C [Pentamethyldisiloxane] | -19.00
F[Si](F)(F)c1ccccc1 [Phenyl trifluorosilane] | -5.00
C[Si](C)(Cl)c1ccccc1 [Phenyldimethylchlorosilane] | 61.00
[SiH3]c1ccccc1 [Phenylsilane] | 8.00
Cl[Si](Cl)(Cl)c1ccccc1 [Phenyltrichlorosilane] | 91.00
CCO[Si](OCC)(OCC)c1ccccc1 [Phenyltriethoxysilane] | 120.00
C#CCO[Si](C)(C)C [Propargyloxytrimethylsilane] | 27.00
CCC[Si](O[SiH](C)C)(O[SiH](C)C)O[SiH](C)C [Propyltris(dimethylsiloxy)silane] | 50.00
CCCO[Si](OCCC)(OCCC)OCCC [Tetra-n-propoxysilane] | 95.00
C[Si](C)(C)O[Si](C)(C)O[Si](C)(C)O[Si](C)(C)O[Si](C)(C)O[Si](C)(C)C [Tetradecamethylhexasiloxane] | 102.00

remark: another data set of the same source

SMILES | flash point [°C]
Cc1ccccc1N [o-Toluidine] | 85.00
Cc1ccc(O)cc1 [p-Cresol] | 94.00
Nc1ccc([N+](=O)[O-])cc1 [p-Nitroaniline] | 199.00
Cc1ccc(N)cc1 [p-Toluidine] | 87.00
Cc1ccc(C)cc1 [p-Xylene] | 27.00
CCCC(C)OC(C)=O (stereo unspecified) [sec-Amyl acetate] | 32.00
CCCCC(C)OC(C)=O (stereo unspecified) [sec-Hexyl acetate] | 45.00
CC(C)(C)O [tert-Butyl alcohol] | 10.00
